# According to patent publication US20040086901A1, “Database for analyzing gene function and method of analyzing gene function by dspa” (priority 2000, published 2004):
# Columns and labels:
# Format in all cases: cell-based, mouse
# [1] = system: NIH3T3 cells overexpressing Ha-ras; test: MTT cell viability, drug sensitivity of Ha-ras overexpressing cells vs parental line; details: Ha-ras high-expressing cells / parental cell line, 3 to 4 days
# Summary of the method: (§1)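 MTT viability of transfected versus parental NIH3T3 after 3–4 days in twofold drug dilution series; values are log ratios of IC40.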
# [2] = system: NIH3T3 cells overexpressing Ki-ras; test: MTT cell viability, Ki-ras overexpressing cells vs parental line; details: Ki-ras high-expressing cells / parental cell line, 3 to 4 days
# Summary of the method: (§2)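 Stable NIH3T3 transfectants (cDNA in pRc-CMV-type vector, G-418-selected, high expressers picked by Western blot) and parental cells were seeded at 1×10^5 cells/ml into twofold serial drug dilutions and grown 3–4 days. MTT formazan was read at 574/655 nm, and log ratios of IC40 values were derived.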
# [3] = system: NIH3T3 cells overexpressing N-ras; test: MTT cell viability, N-ras overexpressing cells vs parental line; details: N-ras high-expressing cells / parental cell line, 3 to 4 days
# Summary of the method: as §2
# [4] = system: NIH3T3 cells overexpressing p16/INK4A; test: MTT cell viability, p16/INK4A overexpressing cells vs parental line; details: p16/INK4A high-expressing cells / parental cell line, 3 to 4 days
# Summary of the method: as §2
# [5] = system: NIH3T3 cells overexpressing m-calpain; test: MTT cell viability, m-calpain overexpressing cells vs parental line; details: m-calpain high-expressing cells / parental cell line, 3 to 4 days
# Summary of the method: as §1
# [6] = system: NIH3T3 cells overexpressing Regucalcin; test: MTT cell viability, Regucalcin overexpressing cells vs parental line; details: Regucalcin high-expressing cells / parental cell line, 3 to 4 days
# Summary of the method: as §2
# [7] = system: NIH3T3 cells overexpressing cystatin E; test: MTT cell viability, cystatin E overexpressing cells vs parental line; details: cystatin E high-expressing cells / parental cell line, 3 to 4 days
# Summary of the method: as §2
# [8] = system: NIH3T3 cells overexpressing caspase-1; test: MTT cell viability, caspase-1 overexpressing cells vs parental line; details: caspase-1 high-expressing cells / parental cell line, 3 to 4 days
# Summary of the method: as §1
# [9] = system: NIH3T3 cells overexpressing caspase-3; test: MTT cell viability, caspase-3 overexpressing cells vs parental line; details: caspase-3 high-expressing cells / parental cell line, 3 to 4 days
# Summary of the method: as §1
# [10] = system: NIH3T3 cells overexpressing caspase-2; test: MTT cell viability, caspase-2 overexpressing cells vs parental line; details: caspase-2 high-expressing cells / parental cell line, 3 to 4 days
# Summary of the method: as §2
# [11] = system: NIH3T3 cells overexpressing PDGF-R; test: MTT cell viability, PDGF-R overexpressing cells vs parental line; details: PDGF-R high-expressing cells / parental cell line, 3 to 4 days
# Summary of the method: as §2
# [12] = system: NIH3T3 cells overexpressing CBP8; test: MTT cell viability, CBP8 overexpressing cells vs parental line; details: CBP8 high-expressing cells / parental cell line, 3 to 4 days
# Summary of the method: as §2
# [13] = system: NIH3T3 cells overexpressing PKCalpha-KN; test: MTT cell viability, PKCalpha-KN overexpressing cells vs parental line; details: 3 to 4 days
# Summary of the method: as §1
# [14] = system: NIH3T3 cells overexpressing p38-DN; test: MTT cell viability, p38-DN overexpressing cells vs parental line; details: p38-DN high-expressing cells / parental cell line, 3 to 4 days
# Summary of the method: as §1
# [15] = system: NIH3T3 cells overexpressing HSP4O; test: MTT cell viability, HSP4O overexpressing cells vs parental line; details: HSP4O high-expressing cells / parental cell line, 3 to 4 days
# Summary of the method: as §2
# [16] = system: NIH3T3 cells overexpressing CaMKIIa; test: MTT cell viability, CaMKIIa overexpressing cells vs parental line; details: CaMKIIa high-expressing cells / parental cell line, 3 to 4 days
# Summary of the method: as §1
# [17] = system: NIH3T3 cells overexpressing HNF1; test: MTT cell viability, HNF1 overexpressing cells vs parental line; details: HNF1 high-expressing cells / parental cell line, 3 to 4 days
# Summary of the method: as §1
# [18] = system: NIH3T3 cells overexpressing HNF3b; test: MTT cell viability, HNF3b overexpressing cells vs parental line; details: HNF3b high-expressing cells / parental cell line, 3 to 4 days
# Summary of the method: as §1
# [19] = system: NIH3T3 cells overexpressing HNF4; test: MTT cell viability, HNF4 overexpressing cells vs parental line; details: HNF4 high-expressing cells / parental cell line, 3 to 4 days
# Summary of the method: as §1
# [20] = system: NIH3T3 cells overexpressing coup; test: MTT cell viability, coup overexpressing cells vs parental line; details: coup high-expressing cells / parental cell line, 3 to 4 days
# Summary of the method: as §2
# [21] = PKCalpha-KN (first of two lines) high-expressing cells / parental cell line
# [22] = PKCalpha-KN (second of two lines) high-expressing cells / parental cell line
compound,measurement,setting,value
"C[C@@H]1O[C@@H](O[C@H]2C[C@@H](O)[C@]3(CO)[C@H]4[C@H](O)C[C@]5(C)[C@@H](C6=CC(=O)OC6)CC[C@]5(O)[C@@H]4CC[C@]3(O)C2)[C@H](O)[C@H](O)[C@H]1O [Ouabain, ouabain]",logarithmic value of ratio of IC40 values,[1],0.32
same,logarithmic value of ratio of IC40 values,[2],0.18
same,logarithmic value of ratio of IC40 values,[3],0.56
same,logarithmic value of ratio of IC40 values,[4],0.63
same,logarithmic value of ratio of IC40 values,[5],0.05
same,logarithmic value of ratio of IC40 values,[6],−0.12
same,logarithmic value of ratio of IC40 values,[7],0.49
same,logarithmic value of ratio of IC40 values,[8],1.26
same,logarithmic value of ratio of IC40 values,[9],0.65
same,logarithmic value of ratio of IC40 values,[10],−0.05
same,logarithmic value of ratio of IC40 values,[11],0.34
same,logarithmic value of ratio of IC40 values,[12],0.58
same,logarithmic value of ratio of IC40 values,[13]; [21],0.00
same,logarithmic value of ratio of IC40 values,[13]; [22],0.06
same,logarithmic value of ratio of IC40 values,[14],0.41
same,logarithmic value of ratio of IC40 values,[15],0.00
same,logarithmic value of ratio of IC40 values,[16],0.23
same,logarithmic value of ratio of IC40 values,[17],0.103
same,logarithmic value of ratio of IC40 values,[18],−0.23
same,logarithmic value of ratio of IC40 values,[19],−0.08
same,logarithmic value of ratio of IC40 values,[20],0.49
C=CC1=C(C)c2cc3[n-]c(cc4nc(cc5[n-]c(cc1n2)c(C)c5CCC(=O)O)C(CCC(=O)O)=C4C)c(C)c3C=C.[Cl-].[Cl-].[Sn+4] [SnPP],logarithmic value of ratio of IC40 values,[1],0.28
same,logarithmic value of ratio of IC40 values,[2],0.18
same,logarithmic value of ratio of IC40 values,[3],0.14
same,logarithmic value of ratio of IC40 values,[4],−0.05
same,logarithmic value of ratio of IC40 values,[5],−0.07
same,logarithmic value of ratio of IC40 values,[6],0.32
same,logarithmic value of ratio of IC40 values,[7],0.11
same,logarithmic value of ratio of IC40 values,[8],−0.15
same,logarithmic value of ratio of IC40 values,[9],−0.40
same,logarithmic value of ratio of IC40 values,[10],−0.33
same,logarithmic value of ratio of IC40 values,[11],−0.07
same,logarithmic value of ratio of IC40 values,[12],0.56
same,logarithmic value of ratio of IC40 values,[13]; [21],−0.14
same,logarithmic value of ratio of IC40 values,[13]; [22],0.00
same,logarithmic value of ratio of IC40 values,[14],0.10
same,logarithmic value of ratio of IC40 values,[15],0.28
same,logarithmic value of ratio of IC40 values,[16],0.24
same,logarithmic value of ratio of IC40 values,[17],0.138
same,logarithmic value of ratio of IC40 values,[18],0.24
same,logarithmic value of ratio of IC40 values,[19],0.46
same,logarithmic value of ratio of IC40 values,[20],0.51
"C/C=C(/C)C(=O)O[C@H]1C(C)=C2[C@H]([C@@H]1OC(=O)CCCCCCC)[C@@](C)(OC(C)=O)C[C@H](OC(=O)CCC)[C@@]1(O)[C@H]2OC(=O)[C@@]1(C)O [Thapsigargin, thapsigargin]",logarithmic value of ratio of IC40 values,[1],0.00
same,logarithmic value of ratio of IC40 values,[2],−0.05
same,logarithmic value of ratio of IC40 values,[3],0.08
same,logarithmic value of ratio of IC40 values,[4],−0.64
same,logarithmic value of ratio of IC40 values,[5],0.05
same,logarithmic value of ratio of IC40 values,[6],0.20
same,logarithmic value of ratio of IC40 values,[7],0.00
same,logarithmic value of ratio of IC40 values,[8],−0.30
same,logarithmic value of ratio of IC40 values,[9],−0.17
same,logarithmic value of ratio of IC40 values,[10],−0.07
same,logarithmic value of ratio of IC40 values,[11],0.29
same,logarithmic value of ratio of IC40 values,[12],0.12
same,logarithmic value of ratio of IC40 values,[13]; [21],0.10
same,logarithmic value of ratio of IC40 values,[13]; [22],0.12
same,logarithmic value of ratio of IC40 values,[14],0.02
same,logarithmic value of ratio of IC40 values,[15],0.18
same,logarithmic value of ratio of IC40 values,[16],0.09
same,logarithmic value of ratio of IC40 values,[17],0.16
same,logarithmic value of ratio of IC40 values,[18],0.24
same,logarithmic value of ratio of IC40 values,[19],0.00
same,logarithmic value of ratio of IC40 values,[20],−0.30
COc1ccc2c(c1)CC[C@@H]1[C@@H]2CC[C@]2(C)[C@@H](NCCCCCCN3C(=O)C=CC3=O)CC[C@@H]12 [U73122],logarithmic value of ratio of IC40 values,[1],−0.19
same,logarithmic value of ratio of IC40 values,[2],−0.60
same,logarithmic value of ratio of IC40 values,[3],−0.54
same,logarithmic value of ratio of IC40 values,[4],0.28
same,logarithmic value of ratio of IC40 values,[5],−0.14
same,logarithmic value of ratio of IC40 values,[6],−0.66
same,logarithmic value of ratio of IC40 values,[7],−0.07
same,logarithmic value of ratio of IC40 values,[8],0.53
same,logarithmic value of ratio of IC40 values,[9],0.53
same,logarithmic value of ratio of IC40 values,[10],−0.02
same,logarithmic value of ratio of IC40 values,[11],−0.11
same,logarithmic value of ratio of IC40 values,[12],0.18
same,logarithmic value of ratio of IC40 values,[13]; [21],−0.33
same,logarithmic value of ratio of IC40 values,[13]; [22],−0.97
same,logarithmic value of ratio of IC40 values,[14],0.00
same,logarithmic value of ratio of IC40 values,[15],−0.20
same,logarithmic value of ratio of IC40 values,[16],−0.05
same,logarithmic value of ratio of IC40 values,[17],0.07
same,logarithmic value of ratio of IC40 values,[18],−0.31
same,logarithmic value of ratio of IC40 values,[19],0.00
same,logarithmic value of ratio of IC40 values,[20],0.00
"COC[C@H]1OC(=O)c2coc3c2[C@@]1(C)C1=C(C3=O)[C@@H]2CCC(=O)[C@@]2(C)C[C@H]1OC(C)=O [Wortmannin, wortmannin]",logarithmic value of ratio of IC40 values,[1],0.34
same,logarithmic value of ratio of IC40 values,[2],0.34
same,logarithmic value of ratio of IC40 values,[3],0.14
same,logarithmic value of ratio of IC40 values,[4],0.30
same,logarithmic value of ratio of IC40 values,[5],0.18
same,logarithmic value of ratio of IC40 values,[6],−0.28
same,logarithmic value of ratio of IC40 values,[7],0.00
same,logarithmic value of ratio of IC40 values,[8],0.20
same,logarithmic value of ratio of IC40 values,[9],0.45
same,logarithmic value of ratio of IC40 values,[10],0.52
same,logarithmic value of ratio of IC40 values,[11],0.00
same,logarithmic value of ratio of IC40 values,[12],0.14
same,logarithmic value of ratio of IC40 values,[13]; [21],0.41
same,logarithmic value of ratio of IC40 values,[13]; [22],−0.06
same,logarithmic value of ratio of IC40 values,[14],−0.18
same,logarithmic value of ratio of IC40 values,[15],−0.07
same,logarithmic value of ratio of IC40 values,[16],−0.15
same,logarithmic value of ratio of IC40 values,[17],0.16
same,logarithmic value of ratio of IC40 values,[18],0.24
same,logarithmic value of ratio of IC40 values,[19],0.14
same,logarithmic value of ratio of IC40 values,[20],0.10
